Assay results: article PMC3579193, “Elucidation of relaxin-3 binding interactions in the extracellular loops of RXFP3” (Frontiers in Endocrinology, 2013)
Where a chain is given by its changes, count along the chain named. pIC50: −log10 of the molar value. “Also recorded” adds a separate entry of the source.

Experiments:
HA-RXFP3 = target: T1, HA-RXFP3 (Homo sapiens, UniProt Q9NSD7); assay: Competition binding with Eu-H3/I5, HA-RXFP3; details: HA-RXFP3 vs wild-type RXFP3, competition binding
T1 construct: expressed in transfected cells; host or cells: HEK-293T
T1 sequence (Q9NSD7 2-469 limits assumed): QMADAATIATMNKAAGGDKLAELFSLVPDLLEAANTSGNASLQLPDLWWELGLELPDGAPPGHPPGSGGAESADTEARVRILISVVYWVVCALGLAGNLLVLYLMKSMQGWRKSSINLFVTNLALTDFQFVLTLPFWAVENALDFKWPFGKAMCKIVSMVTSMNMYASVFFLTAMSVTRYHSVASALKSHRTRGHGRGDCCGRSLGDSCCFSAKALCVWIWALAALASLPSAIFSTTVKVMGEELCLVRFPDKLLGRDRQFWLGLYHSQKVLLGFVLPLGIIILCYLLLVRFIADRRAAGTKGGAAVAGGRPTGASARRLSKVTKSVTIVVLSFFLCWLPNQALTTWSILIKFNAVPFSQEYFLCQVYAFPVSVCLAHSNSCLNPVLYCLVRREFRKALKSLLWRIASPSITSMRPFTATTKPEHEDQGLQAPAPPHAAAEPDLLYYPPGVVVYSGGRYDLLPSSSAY
Procedure: HEK-293T cells were transfected in 96 well optiplates (Perkin Elmer) with plasmids encoding the constructs of interest and Eu-H3/I5 binding assays conducted as described previously ([Luo et al., 2010]; [Haugaard-Kedstrom et al., 2011]). […] Binding data are expressed as mean ± standard error of mean (SEM) of % specific binding of triplicate measurements pooled from at least three independent experiments. Data were analyzed using Graphpad PRISM (Graphpad Inc.) and a non-linear regression one-site binding model was used to plot curves and calculate pIC50 values. All the RXFP3 constructs used in this study contained an N-terminal HA epitope. The HA epitope was detected using a purified mouse monoclonal anti-HA antibody [HA.11(16B12), Covance] and a Alexafluor488-labeled goat anti mouse IgG (Invitrogen) in cell surface expression assays that were performed in 24 well plates as previously described ([Yan et al., 2008]). […] Specific binding data for RXFP3 mutants was expressed as mean ± SEM of % specific binding/%HA-RXFP3 cell surface expression of triplicate measurements pooled from at least three independent experiments. Pooled data were analyzed using one-way ANOVA coupled to Newman–Keuls multiple comparison test for multiple group comparison.

HA-RXFP3 E55A/D58A = target: T2, HA-RXFP3 E55A/D58A (Homo sapiens, UniProt Q9NSD7, D58A/E55A); assay: Competition binding with Eu-H3/I5, HA-RXFP3 E55A/D58A
T2 construct: expressed in transfected cells; host or cells: HEK-293T
T2 sequence (Q9NSD7 2-469 E55A/D58A limits assumed): T1 sequence (Q9NSD7 2-469 limits assumed) with E54A, D57A
Procedure: (§1) PCR reactions and cloning were undertaken as previously described ([Scott et al., 2006], [2012]).
(§2) The same protocol was used to prepare DNA templates of all Glu/Asp to Ala mutants, entailing a single codon change except for D47A/E51A, E55A/D58A, and E141A/D145A which required a double codon change both to Ala. The forward and reverse primers for all mutants are listed in Table 1 and mutagenesis reactions on pcDNA3.1zeo (+)-HA-RXFP3 were performed as previously described ([Scott et al., 2006]; [Yan et al., 2008]). […]
(§3) HEK-293T cells were transfected in 96 well optiplates (Perkin Elmer) with plasmids encoding the constructs of interest and Eu-H3/I5 binding assays conducted as described previously ([Luo et al., 2010]; [Haugaard-Kedstrom et al., 2011]). […] Binding data are expressed as mean ± standard error of mean (SEM) of % specific binding of triplicate measurements pooled from at least three independent experiments. Data were analyzed using Graphpad PRISM (Graphpad Inc.) and a non-linear regression one-site binding model was used to plot curves and calculate pIC50 values. […] The HA epitope was detected using a purified mouse monoclonal anti-HA antibody [HA.11(16B12), Covance] and a Alexafluor488-labeled goat anti mouse IgG (Invitrogen) in cell surface expression assays that were performed in 24 well plates as previously described ([Yan et al., 2008]). […]

HA-RXFP3 245A = target: T3, HA-RXFP3 245A (Homo sapiens, UniProt Q9NSD7, E245A); assay: Competition binding with Eu-H3/I5, HA-RXFP3 E245A
T3 construct: expressed in transfected cells; host or cells: HEK-293T
T3 sequence (Q9NSD7 2-469 E245A limits assumed): T1 sequence (Q9NSD7 2-469 limits assumed) with E244A
Procedure: as §1, §2, §3

CC[C@H](C)[C@@H]1NC(=O)[C@H](Cc2ccccc2)NC(=O)[C@H](CCC(=O)O)NC(=O)[C@H](CCCNC(=N)N)NC(=O)CNC(=O)[C@@H](NC(=O)[C@H](CC(C)C)NC(=O)[C@H](CCCNC(=N)N)NC(=O)[C@@H](NC(=O)CNC(=O)[C@H](Cc2ccc(O)cc2)NC(=O)[C@@H]2CCCN2C(=O)[C@H](C)NC(=O)[C@H](C)NC(=O)[C@@H](N)CCCNC(=N)N)C(C)C)CSSC[C@@H]2NC(=O)[C@@H](NC(=O)[C@H](CO)NC(=O)[C@H](CO)NC(=O)[C@H](CO)NC(=O)[C@H](CC(C)C)NC(=O)CNC(=O)[C@H](C)NC(=O)[C@H](CC(C)C)NC(=O)[C@@H](NC(=O)[C@@H](N)CC(=O)O)C(C)C)CSSC[C@H](NC(=O)CNC(=O)[C@H](Cc3c[nH]c4ccccc34)NC(=O)[C@H](CCCCN)NC2=O)C(=O)N[C@@H](CO)C(=O)N[C@@H](CCCCN)C(=O)N[C@@H](CO)C(=O)N[C@@H](CCC(=O)O)C(=O)N[C@@H]([C@@H](C)CC)C(=O)N[C@@H](CO)C(=O)N[C@@H](CO)C(=O)N[C@@H](CC(C)C)C(=O)N[C@H](C(=O)O)CSSC[C@@H](C(=O)NCC(=O)NCC(=O)N[C@@H](CO)C(=O)N[C@@H](CCCNC(=N)N)C(=O)N[C@@H](Cc2c[nH]c3ccccc23)C(=O)O)NC(=O)[C@H]([C@@H](C)O)NC(=O)[C@H](Cc2ccccc2)NC(=O)[C@H]([C@@H](C)CC)NC(=O)[C@H](C(C)C)NC(=O)[C@H](C)NC(=O)[C@H](CCCNC(=N)N)NC1=O [H3 relaxin]
binding affinity compared with wild-type RXFP3 (HA-RXFP3): no difference in the binding affinity
pIC50 (HA-RXFP3 E55A/D58A): 8.03
affinity compared with HA-RXFP3 (HA-RXFP3 E55A/D58A; competition binding, p > 0.05): not significantly different from HA-RXFP3
pIC50 (HA-RXFP3 245A): 7.35
affinity compared with HA-RXFP3 (HA-RXFP3 245A; competition binding, p > 0.05): slightly lower H3 relaxin binding affinity but this was not significantly different from HA-RXFP3; also recorded: no significant difference in H3 relaxin affinity; also recorded: did not show a significant drop in binding
